Test results: US8034899B2, “HIV fusion inhibitor peptides with improved biological properties” (priority 2006, dated 2011)

Columns and labels:
[1] = Pharmacokinetics after intravenous dosing in cynomolgus monkeys; type: in vivo, cynomolgus monkeys (Macaca fasicularis); settings: plasma
Protocol: For determining pharmacokinetic properties, an HIV fusion inhibitor peptide or a base sequence from which an HIV fusion inhibitor peptide is derived was dosed intravenously in cynomolgus monkeys (Macaca fasicularis) (other animal models may be used for determining pharmacokinetic properties, as known in the art). At various times post-dose, blood samples were drawn and plasma isolated by centrifugation. Plasma samples were stored frozen until analysis by LC-MS (liquid chromatography/mass spectrometry) in the electrospray, positive-ion mode. An HIV fusion inhibitor or base sequence was eluted from a C18 or C8 HPLC column with a gradient of acetonitrile in a buffer of 10 mM ammonium acetate, pH 6.8. At the time of analysis, plasma samples were deproteinated with either two or three volumes of acetonitrile containing 0.5% formic acid. Duplicate calibration standards in cynomolgus plasma samples were prepared at the same time as the samples and analyzed before and after the samples containing either HIV fusion inhibitor peptide or base sequence. Pharmacokinetic properties were calculated from the plasma concentration-time data using either mono-exponential or bi-exponential mathematical models. Models were derived by non-linear least squares optimization. A 1/C^2 weighting of concentrations was used. […]

HIV-1 IIIB = settings: cited from earlier work
IIIB = experiment: In vitro resistance selection in MT2 cells, cMAGI susceptibility, isolate IIIB; type: cell-based, HIV; settings: starting isolate IIIB
Source text: (§1) Assessment of biological properties included measurement of antiviral activity against HIV-1 strains. […] These assays score for reduction of infectious virus titer employing the indicator cell lines MAGI or the CCR5 expressing derivative cMAGI. Both cell lines exploit the ability of HIV-1 tat to transactivate the expression of a β-galactosidase reporter gene driven by the HIV-LTR. The β-gal reporter has been modified to localize in the nucleus and can be detected with the X-gal substrate as intense nuclear staining within a few days of infection. […] The number of infected cells for each control and peptide dilution was determined with the CCD-imager, and then the IC50 was calculated (expressed in μg/ml).
(§2) MT2 cells were infected with virus isolates (IIIB, 030, 060 and 098) and cultured in increasing concentrations of SEQ ID NO:2 (enfuvirtide) or SEQ ID NO:9 to select for resistance. […] Cultures were monitored for cytopathic effect (CPE) using standard techniques and when maximal CPE was achieved, a small aliquot of virus was used for subsequent rounds of infection. […] Peptide-free virus stocks were characterized for gp41 genotypic changes by dideoxy sequencing chemistries and phenotypic susceptibility was determined using a cMAGI infectivity assay.

584.000030 = experiment: In vitro resistance selection in MT2 cells, cMAGI susceptibility, isolate 584.000030; type: cell-based, HIV; settings: starting isolate 584.000030
Source text: as §1, §2

584.000060 = experiment: In vitro resistance selection in MT2 cells, cMAGI susceptibility, isolate 584.000060; type: cell-based, HIV; settings: starting isolate 584.000060
Source text: as §1, §2

584.000098 = experiment: In vitro resistance selection in MT2 cells, cMAGI susceptibility, isolate 584.000098; type: cell-based, HIV; settings: starting isolate 584.000098
Source text: as §1, §2

[2] = system: virus isolates (IIIB, 030, 060 and 098); experiment: In vitro resistance selection, geometric mean over the four isolates; type: cell-based, HIV; settings: Geometric Mean of four isolates
Source text: MT2 cells were infected with virus isolates (IIIB, 030, 060 and 098) and cultured in increasing concentrations of SEQ ID NO:2 (enfuvirtide) or SEQ ID NO:9 to select for resistance. The initial peptide concentration was approximately 2 times the IC50 of each peptide against the corresponding wild type isolate. Peptide concentrations were maintained by adding fresh peptide every 1-3 days. Cultures were monitored for cytopathic effect (CPE) using standard techniques and when maximal CPE was achieved, a small aliquot of virus was used for subsequent rounds of infection. Peptide concentrations were increased 2 to 4-fold depending on the length of time in culture when compared to the growth rate of wild type virus. During the course of selection, peptide-free virus stocks were also collected. Peptide-free virus stocks were characterized for gp41 genotypic changes by dideoxy sequencing chemistries and phenotypic susceptibility was determined using a cMAGI infectivity assay.

[3] = 10 mg/ml in PBS, pH 7.3 to 7.5, 37° C., after several hours
HIV-1LA1 = settings: cited from earlier work
[4] = no additional components; cited from earlier work

## Ac-TTWEAWDRAIAEYAARIEALLRAAQEQQEKLEAALREL-NH2 [SEQ ID NO:10, TTWEAWDRAIAEYAARIEALLRAAQEQQEKLEAALREL]
[1]
  Clearance: <0.02 L/kg/h

## Ac-TTWEAWDRAIAEYAARIEALLRALQEQQEKNEAALREL-NH2 [SEQ ID NO:9, TTWEAWDRAIAEYAARIEALLRALQEQQEKNEAALREL]
[1]
  Clearance: <0.02 L/kg/h

## MTWMEWDREINNYTSLIHSLIEESQNQQEKNEQELL [T651]
HIV-1 IIIB
  IC50 blocking infection of target cells: 5 ng/mL

## enfuvirtide
IIIB
  Fold Change in IC50: 27 fold
584.000030
  Fold Change in IC50: 19 fold
584.000060
  Fold Change in IC50: 7 fold
584.000098
  Fold Change in IC50: 912 fold
[2]
  Fold Change in IC50: 42 fold
[3]
  stability of the solution (peptide remaining in solution): minimal peptide detected in solution
HIV-1LA1
  EC50 blocking infection of target cells: 0.5 ng/mL
[4]
  concentration achievable in an injectable aqueous solution without problems of solubility and stability: ≤ 100 mg/mL
